Experimental data from the NIST ThermoML archive (doi:10.1016/j.jct.2017.02.009).
± gives the expanded uncertainty stated by the source.

Tests used:
[1] = 100 kPa, Liquid; for mass density: Vibrating tube method; for viscosity: Capillary tube (Ostwald / Ubbelohde) method
[2] = xn = mol fraction of the nth substance listed; conditions: 100 kPa, Liquid, x1 = 1; for mass density: Vibrating tube method

Row | Structure (SMILES) | mass density ([1]; 293.15 K) [kg/m3] | viscosity ([1]; 298.15 K) [mPa·s] | mass density ([1]; 298.15 K) [kg/m3] | mass density ([1]; 303.15 K) [kg/m3] | mass density ([1]; 313.15 K) [kg/m3] | mass density ([2]; 293.15 K) [kg/m3] | viscosity ([2]; 298.15 K, Capillary tube (Ostwald / Ubbelohde) method) [mPa·s] | mass density ([2]; 298.15 K) [kg/m3] | mass density ([2]; 303.15 K) [kg/m3] | mass density ([2]; 313.15 K) [kg/m3]
1 | C[S+](C)[O-] [dimethyl sulfoxide] | 1100.2 ± 1 | 1.985 ± 0.025 | 1095.2 ± 1 | 1090.2 ± 1 | 1080.2 ± 1 |  |  |  |  | 
2 | C[S+](C)[O-] [dimethyl sulfoxide] + O=C1CCCO1 |  |  |  |  |  | 1100.2 ± 1 | 1.985 ± 0.025 | 1095.2 ± 1 | 1090.2 ± 1 | 1080.2 ± 1
3 | O=C1CCCO1 [γ-butyrolactone] | 1129.4 ± 1 | 1.72 ± 0.024 | 1124.5 ± 1 | 1119.6 ± 1 | 1109.8 ± 1 |  |  |  |  | 
